Laboratory results: US8993721B2, “Peptides for targeting apoptotic cells and uses thereof” (Kyungpook National University Industry-Academic Cooperation …, priority 2008, dated 2015)
Entries after “also recorded” stand apart in the source; their conditions may differ. Where no end group is shown, it is not given here.

Key:
[1] = system: apoptotic cells in A549 tumor tissue xenotransplanted in nude mouse; assay: Histological analysis of tumor targeting (Example 8); type: in vivo; settings: fluorescein-labeled peptide, tail vein, 50 μM
Method: All animal experiments were performed in accordance with the guideline of the Institutional Animal Care and Use Committee. For tumor xenotransplantation, human lung cancer cells (A549, 1×10^6 cells) suspended in RMPI-1640 medium was subcutaneously injected at the right upper or lower limb of a 6-week-old male BALB/c nude mouse (Hyochang Science). Then, 3 to 4 weeks were given for the tumor to grow to a size of 0.5 to 1 cm. The A549 cell line used in the experiment was cultured in RMPI-1640 medium containing 10% fetal bovine serum (FBS) in which antibiotics (penicillin and streptomycin) were included. Subculturing was performed every 3 or 4 days.
The peptides used in the present invention were fluorescein-attached form at the N-terminal. They were synthesized according to the standard Fmoc technique and then isolated through HPLC. The peptide synthesis was performed by an expertise company (Peptron). […]
For histological analysis, the mouse was anesthetized and the abdomen was cut open. […] After treatment with a mounting solution containing the nuclear stain 4′,6-diamidino-2-phenylindole (DAPI) (Invitrogen), images of the cells were obtained under a fluorescence microscope (Zeiss).

[2] = system: etoposide-treated apoptotic A549 cells; assay: Microscopic observation of binding of the peptide to apoptotic cells, A549 (Example 9-1); type: cell-based, human
Method: Cells were cultured in chamber slide (Nunc) and treated with 50 μM etoposide (Sigma) for 16 hours (A549 cells) or 50 ng/ml trail (R&D Systems) for 16 hours (MDA-MB231 cells) to induce apoptosis. The cells were cultured in RMPI-1640 medium (A549 cells) or DMEM-High (MDA-MB231 cells) containing antibiotics (penicillin and streptomycin) and 10% FBS. All the cells were sub-cultured every 3 or 4 days. The apoptosis-induced apoptotic cells were washed with PBS and blocked with 1% BSA at 37° C. for 30 minutes. Then, the cells were reacted with 10 μM of the peptide labeled with fluorescein, at 4° C. for 1 hour. After washing, the cells were reacted with an annexin V reaction buffer containing Alexa594-labeled annexin V (Invitrogen) at room temperature for 15 minutes. The cells were washed with PBS and then fixed with 4% paraformaldehyde for 5 minutes. After treatment with a mounting solution containing the DAPI nuclear stain, images of the cells were obtained under a fluorescence microscope.

[3] = system: A549 tumor xenotransplanted in nude mice; assay: In vivo fluorescence imaging of targeting of apoptotic cells in tumor (Example 10); set-up: species or system mouse
Method: Nude mice in which tumor was xenotransplanted using A549 cells were prepared as in Example <8-1>. The mice were grouped into a doxorubicin (Sigma) treated group (Dox+) and untreated group (Dox−). The treated group was treated with doxorubicin (5 mg/kg) one time, 12 hours prior to injection of the peptide. At the tail vein of each mouse, the polypeptide of the present invention or a control peptide, labeled with fluorescein or Cy7.5 near-infrared fluorescent dye, was injected at a final concentration of 50 μM, under isoflurane anesthesia. Following the injection, in vivo fluorescence images were obtained 0.5 hours and every hour, from 1 hour to 4 hours, after the injection, using an Optix exPlore instrument (ART). The images were standardized using the software provided with the instrument.

[4] = system: A549 tumor xenotransplanted in nude mice; assay: as above; set-up: species or system mouse; settings: fluorescein-labeled; large tumor (1 cm or larger)

CSVAPR (also: fluorescein or Cy7.5 label) [ApoPep-2, peptide CSVAPR screened for endothelial cells; used fluorescein- or Cy7.5-labeled]
binding to cells stained by TUNEL (apoptotic cells) in the tumor tissue ([1]; 2 hours): target the tumor tissue and mainly bind to the tumor cells undergoing apoptosis; also recorded: binds to the cells stained by TUNEL | peptide fluorescence observed in the tumor tissue ([1]; 2 hours circulation): observed in the tumor tissue | labeling of A549 cells not treated with etoposide ([2]; 10 μM peptide 4° C. 1 hour, Alexa594-annexin V): hardly bound to the untreated cells; also recorded: no labeling was observed | labeling of etoposide-treated apoptotic A549 cells ([2]; 50 μM etoposide 16 hours, 10 μM fluorescein-labeled peptide 4° C. 1 hour, Alexa594-annexin V): strongly bound to the apoptotic cells; also recorded: labeling was observed | location of peptide binding relative to annexin V binding (merge), A549 ([2]; etoposide-treated apoptotic cells): at the same locations | ex vivo fluorescence signal from the kidney ([3]; 4 hours after peptide injection, all the groups, renal clearance): strong | ex vivo fluorescence signal from the isolated tumor, doxorubicin treated group ([3]; 4 hours after peptide injection, compared to Dox− ApoPep-2 and Dox+ control peptide): strong | time at which the fluorescence signal from the tumor tissue was most strongly detected ([3]; Cy7.5-labeled, doxorubicin treated group (5 mg/kg, 12 hours before)): 2 h | fluorescence signal from the tumor, doxorubicin treated group ([3]; Dox+, Cy7.5-labeled peptide 50 μM): targeted the tumor tissue | fluorescence signal from the tumor, doxorubicin untreated group ([3]; Dox−, Cy7.5-labeled peptide 50 μM): targeting was not observed; also recorded: weakly detected | time from which fluorescence from the tumor was detected ([3]; fluorescein-labeled, large tumor (1 cm or larger in diameter), no agent): 2 h | fluorescence signal from the tumor at 5 hours [4]: strong fluorescence signal
